This is an account of results in patent US20060040827A1, “Environmentally safe herbicide, fungicide, bactericide and adjuvant composition” (priority 2004, published 2006).

The experiment deals with grass and broad leaf. The experiment is described as follows: Grass and broad leaf kill, cocktails compared against glyphosate (5%). The class given is in vivo. The text has this:
This cocktail can be mixed with water prior to use at 1:5 parts of water to 1:200 parts of water. The higher the concentration of the cocktail the faster the kill of the weeds. Cocktail I was compared against glyphosate (5%).
Compared against Glyphosate at 5%:
Same as Cocktail I but add concentrated glyphosate to yield 1% glyphosate in mix.

For `O=C(O)CNCP(=O)(O)O` [Glyphosate, N-(phosphonomethyl) glycine], the “Grass and broad leaf kill, 24 hours” value (24 hours, Cocktail I vs glyphosate at 5%) turned out to be 10%. Further, the “Broad leaf and grass kill, 24 hours” value is, setting by setting: (24 hours, Cocktail II vs glyphosate at 5%) 10%; (24 hours, Cocktail III (1% glyphosate in mix) vs glyphosate at 5%) 10%. Besides, the “Broad leaf and grass kill, 2 days” value is 20% (Cocktail II vs glyphosate at 5%) and 20% (Cocktail III (1% glyphosate in mix) vs glyphosate at 5%). In addition, the “Grass and broad leaf kill, 7 days” value (7 days, Cocktail I vs glyphosate at 5%) came to 100%. Further, the “Broad leaf and grass kill, 7 days” value (7 days, Cocktail II vs glyphosate at 5%) came to 100%; the “Broad leaf and grass kill, 7 days” value (7 days, Cocktail III (1% glyphosate in mix) vs glyphosate at 5%) worked out at 100%.
